Laboratory results: patent EP0089860A1, “Levogyrous isomer of mequitazine, process for its preparation and pharmaceutical preparations containing it” (priority 1982, dated 1983)

Test system: souris
Experiment: Acute toxicity in the mouse
Assay type: in vivo
Settings: comparison of composé (Ia) and Méquitazine

Row | Structure (SMILES) | toxicité aiguë
1 | c1ccc2c(c1)Sc1ccccc1N2CC1CN2CCC1CC2 (racemic) [Méquitazine racémique, [(aza-1 bicyclo(2,2,2)octyl-3)méthyl]-10 10H-phénothiazine] | sensiblement identiques
2 | c1ccc2c(c1)Sc1ccccc1N2C[C@@H]1CN2CCC1CC2 [Composé (Ia), [(aza-1 bicyclo(2,2,2)octyl-3 (S))méthyl]-10 10H-phénothiazine] | sensiblement identiques
